From US9346827B2, “5-amino-oxazepine and 5-amino-thiazepane compounds as beta secretase antagonists and methods of use” (Amgen Inc., priority 2011, dated 2016)

Columns and labels:
BACE 1 = BACE 1 (Homo sapiens (Human), UniProt P56817); assay: In vitro enzymatic BACE FRET assay; type: biochemical; settings: average IC50; enzyme 0.2 nM, FRET substrate 50 nM, pH 4.2
Method: In Vitro Enzymatic BACE FRET (Fluorescence Resonance Energy Transfer) Assay
The assay buffer used in this screen is 0.05 M acetate, pH 4.2, 10% DMSO final, 100 uM genapol (which is a nonionic detergent, below its Critical Micelle Concentration). […] This assay is effectively started by the addition of FRET substrate (50 nM) and the combination is incubated for one hour. The FRET assay is terminated with by addition of Tris buffer, which raises the pH to neutrality, and the fluorescence is determined. The FRET substrate is a peptide with commercially available fluorophore and quencher, on opposite sides of the BACE cleavage site. Proteolytic cleavage of the FRET substrate releases quenching of fluorescence (excitation […] and […]).

[1] = test system: Aβ40 in conditioned medium of cells expressing amyloid precursor protein; assay: In vitro BACE cell-based assay (HEK cell assay, Aβ40 sandwich ELISA); settings: Homo sapiens, HEK293; average IC50; inhibition of Aβ40 after 24 h incubation
Method: In Vitro BACE Cell-Based Assay
The cell-based assay measures inhibition or reduction of Aβ40 in conditioned medium of test compound treated cells expressing amyloid precursor protein.
Cells stably expressing Amyloid Precursor Protein (APP) were plated at a density of 40K cells/well in 96 well plates (Costar). The cells were cultivated for 24 hours at 37° C. and 5% CO2 in DMEM supplemented with 10% FBS. The test compounds were then added to cells in 10-point dose response concentrations with the starting concentration being either 100 μM or 10 μM. The compounds were diluted from stock solutions in DMSO and the final DMSO concentration of the test compounds on cells was 0.1%. After 24 h of incubation with the test compounds the supernatant conditioned media was collected and the Aβ40 levels were determined using a sandwich ELISA. The IC50 of the compound was calculated from the percent of control or percent inhibition of Aβ40 as a function of the concentration of the test compound.
The sandwich ELISA to detect Aβ40 was performed in 96 well microtiter plates, which were pre-treated with goat anti-rabbit IgG (Pierce). The capture and detecting antibody pair that were used to detect Aβ40 from cell supernatants were affinity purified pAb40 (Biosource) and biotinylated 6E10 (Signet Labs Inc.), respectively. The optimal concentration for the pAb40 antibody was 3 μg/ml in Superblock/TBS (Pierce) that was supplemented with 0.05% Tween 20 (Sigma).
Cellular supernatants were incubated with the capture antibody for 3 h at 4° C., followed by 3 wash steps in TBS-tween (0.05%). The detecting antibody incubation was for 2 h at 4° C., again followed by the wash steps as described previously. The final readout of the ELISA is Time-Resolved Fluorescence (counts per minute) using Delfia reagents Streptavidin-Europium and Enhancement solutions (Perkin Elmer) and the Victor 2 multilabel counter (Perkin Elmer).

Chain of BACE 1 (P56817 46-501, species assumed): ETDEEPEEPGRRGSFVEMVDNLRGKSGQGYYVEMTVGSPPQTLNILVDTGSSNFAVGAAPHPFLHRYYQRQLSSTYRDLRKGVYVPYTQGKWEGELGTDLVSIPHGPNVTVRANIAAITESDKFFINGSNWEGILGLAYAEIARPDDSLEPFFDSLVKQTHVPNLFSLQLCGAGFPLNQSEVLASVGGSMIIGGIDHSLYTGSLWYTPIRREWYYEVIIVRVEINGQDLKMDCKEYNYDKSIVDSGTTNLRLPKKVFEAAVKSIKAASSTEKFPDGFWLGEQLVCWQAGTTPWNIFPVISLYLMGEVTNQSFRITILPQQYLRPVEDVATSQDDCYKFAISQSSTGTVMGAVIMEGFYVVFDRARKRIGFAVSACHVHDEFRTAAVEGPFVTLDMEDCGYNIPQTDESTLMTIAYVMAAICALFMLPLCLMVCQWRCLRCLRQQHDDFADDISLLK

Structure (SMILES): NC1=NC2(COCC1)c1cc(-c3cccnc3F)ccc1Oc1cnc(-c3ccnc(F)c3)cc12 (racemic) [Example 2, (5R/S)-7-(2-fluoro-3-pyridinyl)-3-(2-fluoro-4-pyridinyl)-6′,7′-dihydrospiro-[chromeno-[2,3-c]pyridine-5,3′-[1,4]oxazepin]-5′-amine]
- IC50 (BACE 1): 1 nM
- IC50 [1]: 3 nM

Structure (SMILES): CC(C)(C)COc1cc(F)c2c(c1)C1(COCCC(N)=N1)c1cc(-c3cccnc3F)ccc1O2 (racemic) [Example 4, (3R/S)-2′-(2,2-dimethylpropoxy)-4′-fluoro-7′-(2-fluoro-3-pyridinyl)-6,7-dihydrospiro[1,4-oxazepine-3,9′-xanthen]-5-amine]
- IC50 (BACE 1): 1 nM
- IC50 [1]: 12 nM

Structure (SMILES): NC1=N[C@]2(COCC1)c1cc(Br)ccc1Oc1cnc(Cl)cc12 [Example 3A, (5R)-7-bromo-3-chloro-6′,7′-dihydrospiro-[chromeno[2,3-c]pyridine-5,3′-[1,4]oxazepin]-5′-amine]
- IC50 (BACE 1): 9230 nM
- IC50 [1]: 6370 nM

Structure (SMILES): NC1=N[C@@]2(COCC1)c1cc(Br)ccc1Oc1cnc(Cl)cc12 [Example 3B, (5S)-7-bromo-3-chloro-6′,7′-dihydrospiro-[chromeno[2,3-c]-pyridine-5,3′-[1,4]oxazepin]-5′-amine]
- IC50 (BACE 1): 3830 nM
- IC50 [1]: 892 nM

Structure (SMILES): NC1=N[C@]2(COCC1)c1cc(-c3cccnc3F)ccc1Oc1cnc(-c3ccnc(F)c3)cc12 [Example 13, (5R)-7-(2-fluoro-3-pyridinyl)-3-(2-fluoro-4-pyridinyl)-6′,7′-dihydrospiro[chromeno-[2,3-c]-pyridine-5,3′-[1,4]oxazepin]-5′-amine]
- IC50 (BACE 1): 139 nM
- IC50 [1]: 78 nM

Structure (SMILES): NC1=N[C@@]2(COCC1)c1cc(-c3cccnc3F)ccc1Oc1cnc(-c3ccnc(F)c3)cc12 [Example 14, (5S)-7-(2-fluoro-3-pyridinyl)-3-(2-fluoro-4-pyridinyl)-6′,7′-dihydrospiro[chromeno-[2,3-c]-pyridine-5,3′-[1,4]oxazepin]-5′-amine]
- IC50 (BACE 1): 0.5 nM
- IC50 [1]: 1 nM

Structure (SMILES): CC(C)(C)COc1cc(F)c2c(c1)[C@]1(COCCC(N)=N1)c1cc(-c3cccnc3F)ccc1O2 [Example 15, (3S)-2′-(2,2-dimethylpropoxy)-4′-fluoro-7′-(2-fluoro-3-pyridinyl)-6,7-dihydrospiro[1,4-oxazepine-3,9′-xanthen]-5-amine]
- IC50 (BACE 1): 0.5 nM
- IC50 [1]: 7 nM

Structure (SMILES): CC(C)(C)COc1cc(F)c2c(c1)[C@@]1(COCCC(N)=N1)c1cc(-c3cccnc3F)ccc1O2 [Example 16, (3R)-2′-(2,2-dimethylpropoxy)-4′-fluoro-7′-(2-fluoro-3-pyridinyl)-6,7-dihydrospiro[1,4-oxazepine-3,9′-xanthen]-5-amine]
- IC50 (BACE 1): 285 nM
- IC50 [1]: 300 nM

Structure (SMILES): NC1=N[C@]2(CCOC1)c1cc(-c3cccnc3F)ccc1Oc1cnc(-c3ccnc(F)c3)cc12 [Example 17, (5R)-7-(2-fluoro-3-pyridinyl)-3-(2-fluoro-4-pyridinyl)-6′,7′-dihydro-2′H-spiro[chromeno[2,3-c]pyridine-5,5′-[1,4]oxazepin]-3′-amine]
- IC50 (BACE 1): 369 nM
- IC50 [1]: 689 nM

Structure (SMILES): NC1=N[C@@]2(CCOC1)c1cc(-c3cccnc3F)ccc1Oc1cnc(N3CCC(F)(F)C3)cc12 [Example 19, (S)-3-(3,3-difluoropyrrolidin-1-yl)-7-(2-fluoropyridin-3-yl)-6′,7′-dihydro-2′H-spiro[chromeno[2,3-c]pyridine-5,5′-[1,4]oxazepin]-3′-amine]
- IC50 (BACE 1): 3 nM
- IC50 [1]: 4 nM
